Measurements as given in US10611740B2, “Aryl dihydro-2H-benzo[b][1,4]oxazine sulfonamide and related compounds for use as agonists of RORγ and the treatment of disease” (Lycera Corporation, priority 2015, dated 2020).

What was measured:
Gal4-RORγ-LBD = biological target: T1, Gal4-RORγ-LBD (Homo sapiens, UniProt P51449); experiment: Gal4-RORγ Luciferase Reporter Assay in HEK-293T Cells; assay type: cell-based; conditions: HEK-293 cells, luciferase reporter, with 2 μM ursolic acid
T1 construct: expressed in transfected cells; host or cells: HEK-293 cells (pcDNA3.1neo plasmid)
T1 sequence (P51449 269-508 limits assumed): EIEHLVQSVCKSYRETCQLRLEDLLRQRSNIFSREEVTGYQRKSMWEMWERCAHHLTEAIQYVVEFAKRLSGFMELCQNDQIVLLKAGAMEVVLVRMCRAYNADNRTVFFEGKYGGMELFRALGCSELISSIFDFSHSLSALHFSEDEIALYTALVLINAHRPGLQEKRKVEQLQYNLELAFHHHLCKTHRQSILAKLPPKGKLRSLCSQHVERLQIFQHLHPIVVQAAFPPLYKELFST
In short: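 HEK-293 cells were transiently co-transfected with Gal4-RORγ-LBD and pGL4.31 Gal4-luciferase, with ursolic acid added at 2 μM final. Compounds were incubated overnight at 37° C. in 0.2% DMSO and luminescence read with One-Glo. Max Response is the upper plateau of a 4-parameter logistic fit, with signal lacking ursolic acid or compound set to 100.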

RORγ-LBD = biological target: T2, RORγ-LBD (Homo sapiens, UniProt P51449); experiment: RORγ-Ligand Binding Domain (LBD) TR-FRET Assay; assay type: biochemical;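 for TR-FRET Assay Max Response: 665/615 nm ratio relative to signal without ursolic acid or compound set at 100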
T2 construct: made in house; host or cells: SF9 cells (baculovirus)
T2 sequence (P51449 269-508 limits assumed): T1 sequence (P51449 269-508 limits assumed)
In short: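 Compounds, diluted in DMSO and then in assay buffer (1% DMSO final), were combined with His-tagged RORγ-LBD lysate at roughly 3 nM final and a 200 nM biotinylated SRC1 LXXLL peptide. Ursolic acid was included at 2 μM final. Coactivator recruitment was detected by TR-FRET.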

Structure (SMILES) | EC50 (Gal4-RORγ-LBD) | Gal4-RORγ Assay Max Response (Gal4-RORγ-LBD) | EC50 (RORγ-LBD) | TR-FRET Assay Max Response (RORγ-LBD)
O=C(NC[C@H]1CN(S(=O)(=O)c2cccc(C(F)(F)F)c2)c2cc(-c3cc(F)ccc3F)ccc2O1)c1cnco1 [Compound 30AK, (S)-N-((6-(2,5-difluorophenyl)-4-((3-(trifluoromethyl)phenyl)-sulfonyl)-3,4-dihydro-2H-benzo[b][1,4]oxazin-2-yl)methyl)oxazole-5-carboxamide] | 500 to 5000 nM | ** (The symbol “**” indicates a value in the range of greater than 90 to 150) | < 500 nM | **** (The symbol “****” indicates a value greater than 200)
NS(=O)(=O)CCC(=O)NC[C@H]1CN(S(=O)(=O)c2cccc(C(F)(F)F)c2)c2cc(-c3cc(F)ccc3F)ccc2O1 [Compound 30AL, (S)-N-((6-(2,5-difluorophenyl)-4-((3-(trifluoromethyl)phenyl)-sulfonyl)-3,4-dihydro-2H-benzo[b][1,4]oxazin-2-yl)methyl)-3-sulfamoyl-propanamide] | < 500 nM | * (The symbol “*” indicates a value in the range of 25 to 90) | < 500 nM | **** (The symbol “****” indicates a value greater than 200)
O=C(NC[C@H]1CN(S(=O)(=O)c2cccc(C(F)(F)F)c2)c2cc(-c3cc(F)ccc3F)ccc2O1)[C@@H]1C[C@@H]1F [Compound 30AM, (1S,2S)-N-(((S)-6-(2,5-difluoro-phenyl)-4-((3-(trifluoromethyl)-phenyl)sulfonyl)-3,4-dihydro-2H-benzo[b][1,4]oxazin-2-yl)methyl)-2-fluorocyclo-propane-1-carboxamide] | < 500 nM | ** (The symbol “**” indicates a value in the range of greater than 90 to 150) | < 500 nM | **** (The symbol “****” indicates a value greater than 200)
O=C(NC[C@H]1CN(S(=O)(=O)c2cccc(C(F)(F)F)c2)c2cc(-c3cc(F)ccc3F)ccc2O1)[C@H]1C[C@H]1F [Compound 30AN, (1R,2R)-N-(((S)-6-(2,5-difluoro-phenyl)-4-((3-(trifluoromethyl)-phenyl)sulfonyl)-3,4-dihydro-2H-benzo[b][1,4]oxazin-2-yl)methyl)-2-fluorocyclo-propane-1-carboxamide] | < 500 nM | ** (The symbol “**” indicates a value in the range of greater than 90 to 150) | < 500 nM | **** (The symbol “****” indicates a value greater than 200)
CC(C)(C)C(=O)NC[C@H]1CN(S(=O)(=O)c2cccc(C(F)(F)F)c2)c2cc(-c3cc(F)ccc3F)ccc2O1 [Compound 30AO, (S)-N-((6-(2,5-difluorophenyl)-4-((3-(trifluoromethyl)phenyl)-sulfonyl)-3,4-dihydro-2H-benzo[b][1,4]oxazin-2-yl)methyl)pivalamide] | < 500 nM | * (The symbol “*” indicates a value in the range of 25 to 90) | < 500 nM | **** (The symbol “****” indicates a value greater than 200)
N#CCC(=O)NC[C@H]1CN(S(=O)(=O)c2cccc(C(F)(F)F)c2)c2cc(-c3cc(F)ccc3F)ccc2O1 [Compound 30AP, (S)-2-cyano-N-((6-(2,5-difluoro-phenyl)-4-((3-(trifluoromethyl)-phenyl)sulfonyl)-3,4-dihydro-2H-benzo[b][1,4]oxazin-2-yl)methyl)acetamide] | < 500 nM | * (The symbol “*” indicates a value in the range of 25 to 90) | < 500 nM | *** (The symbol “***” indicates a value in the range of greater than 150 to 200)
CC(C)(C#N)C(=O)NC[C@H]1CN(S(=O)(=O)c2cccc(C(F)(F)F)c2)c2cc(-c3cc(F)ccc3F)ccc2O1 [Compound 30AQ, (S)-2-cyano-N-((6-(2,5-difluoro-phenyl)-4-((3-(trifluoromethyl)-phenyl)sulfonyl)-3,4-dihydro-2H-benzo[b][1,4]oxazin-2-yl)methyl)-2-methylpropanamide] | < 500 nM | * (The symbol “*” indicates a value in the range of 25 to 90) | < 500 nM | *** (The symbol “***” indicates a value in the range of greater than 150 to 200)
O=C(NC[C@H]1CN(S(=O)(=O)c2cccc(C(F)(F)F)c2)c2cc(-c3cc(F)ccc3F)ccc2O1)C1(F)CC1 [Compound 30AR, (S)-N-((6-(2,5-difluorophenyl)-4-((3-(trifluoromethyl)phenyl)-sulfonyl)-3,4-dihydro-2H-benzo[b][1,4]oxazin-2-yl)-methyl)-1-fluorocyclopropane-1-carboxamide] | < 500 nM | * (The symbol “*” indicates a value in the range of 25 to 90) | < 500 nM | **** (The symbol “****” indicates a value greater than 200)
CC(=O)N[C@@H](C(=O)NC[C@H]1CN(S(=O)(=O)c2cccc(C(F)(F)F)c2)c2cc(-c3cc(F)ccc3F)ccc2O1)C(C)C [Compound 30AS] | 500 to 5000 nM | * (The symbol “*” indicates a value in the range of 25 to 90) | < 500 nM | *** (The symbol “***” indicates a value in the range of greater than 150 to 200)
CC(=O)N[C@H](C)C(=O)NC[C@H]1CN(S(=O)(=O)c2cccc(C(F)(F)F)c2)c2cc(-c3cc(F)ccc3F)ccc2O1 [Compound 30AT, (R)-2-acetamido-N-(((S)-6-(2,5-difluorophenyl)-4-((3-(trifluoro-methyl)phenyl)sulfonyl)-3,4-dihydro-2H-benzo[b][1,4]-oxazin-2-yl)methyl)propanamide] | 500 to 5000 nM | ** (The symbol “**” indicates a value in the range of greater than 90 to 150) | < 500 nM | *** (The symbol “***” indicates a value in the range of greater than 150 to 200)
CC(C)(CO)C(=O)NC[C@H]1CN(S(=O)(=O)c2cccc(C(F)(F)F)c2)c2cc(-c3cc(F)ccc3F)ccc2O1 [Compound 30AU, (S)-N-((6-(2,5-difluorophenyl)-4-((3-(trifluoromethyl)phenyl)-sulfonyl)-3,4-dihydro-2H-benzo[b][1,4]oxazin-2-yl)methyl)-3-hydroxy-2,2-dimethylpropanamide] | < 500 nM | ** (The symbol “**” indicates a value in the range of greater than 90 to 150) | < 500 nM | **** (The symbol “****” indicates a value greater than 200)
CC1(C(=O)NC[C@H]2CN(S(=O)(=O)c3cccc(C(F)(F)F)c3)c3cc(-c4cc(F)ccc4F)ccc3O2)CC1 [Compound 30AV, (S)-N-((6-(2,5-difluorophenyl)-4-((3-(trifluoromethyl)phenyl)-sulfonyl)-3,4-dihydro-2H-benzo[b][1,4]oxazin-2-yl)methyl)-1-methylcyclo-propane-1-carboxamide] | < 500 nM | * (The symbol “*” indicates a value in the range of 25 to 90) | < 500 nM | *** (The symbol “***” indicates a value in the range of greater than 150 to 200)
